According to patent US20230263822A1, “MODULATION OF FACTOR 11 EXPRESSION” (Ionis Pharmaceuticals, Inc., priority 2008, published 2023):
Strand notation (5' to 3'): a small letter for the sugar, then the base; units joined by * are phosphorothioate-linked, units joined directly phosphodiester-linked; [ ] holds rarer units or linkages, { } end groups; capitals alone tell only the bases. e = 2'-O-(2-methoxyethyl) (MOE); [5mC] = 5-methylcytosine; d = 2'-deoxy (DNA)

Tested on: human Factor 11 mRNA
Assay: Antisense inhibition of human Factor 11 in HepG2 cells by microwalk gapmers, lipofectin, 75 nM (Example 3)
Type: cell-based
How it was run: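 HepG2 cells (10,000/well) were transfected via lipofectin with 75 nM 20-mer MOE gapmers (phosphorothioate, 5-methyl-C) for about 24 h. Factor 11 mRNA was measured by qRT-PCR, normalized to RIBOGREEN total RNA, and given as percent inhibition versus untreated cells.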

[1] = HepG2, lipofectin, ~24 h, gapmers targeted to nucleobases 656 to 704 of SEQ ID NO: 1
[2] = HepG2 cells, lipofectin, gapmers targeted to nucleobases 1275 to 1318 of SEQ ID NO: 1
[3] = HepG2 cells, lipofectin, gapmers targeted to nucleobases 1062 to 1091 of SEQ ID NO: 1
[4] = HepG2 cells, lipofectin, gapmers targeted to nucleobases 738 to 762 of SEQ ID NO: 1
[5] = HepG2 cells, lipofectin, gapmers targeted to nucleobases 1018 to 1042 of SEQ ID NO: 1

416824 (antisense e[5mC]*e[5mC]*e[5mC]*eT*eT*d[5mC]*dA*dT*dG*dT*d[5mC]*dT*dA*dG*dG*eT*e[5mC]*e[5mC]*eA*e[5mC]) [compound 416824]
% inhibition [1]: 64%

416948 (antisense eA*eT*dA*dA*dA*dT*dG*dT*d[5mC]*dT*dT*dT*dG*dT*dT*eG*e[5mC]*eA*eA*eG) [compound 416948]
% inhibition [1]: 62%

416928 (antisense eA*eT*eT*dG*dG*dT*dG*d[5mC]*dA*d[5mC]*dA*dG*dT*dT*dT*d[5mC]*dT*eG*eG*e[5mC]) [compound 416928]
% inhibition [2]: 91%

416919 (antisense eT*eT*eT*d[5mC]*dT*dT*dT*dG*dA*dG*dA*dT*dT*d[5mC]*dT*dT*dT*eG*eG*eG) [compound 416919]
% inhibition [3]: 27%

417004 (antisense eT*eT*dG*dG*dT*dG*d[5mC]*dA*d[5mC]*dA*dG*dT*dT*dT*d[5mC]*eT*eG*eG*e[5mC]*eA) [compound 417004]
% inhibition [2]: 86%

417007 (antisense eG*e[5mC]*dA*dT*dT*dG*dG*dT*dG*d[5mC]*dA*d[5mC]*dA*dG*dT*eT*eT*e[5mC]*eT*eG) [compound 417007]
% inhibition [2]: 82%

416913 (antisense eT*eG*eA*dG*dA*dT*dT*d[5mC]*dT*dT*dT*dG*dG*dG*d[5mC]*d[5mC]*dA*eT*eT*e[5mC]) [compound 416913]
% inhibition [3]: 93%

416997 (antisense eA*e[5mC]*dA*dG*dT*dT*dT*d[5mC]*dT*dG*dG*d[5mC]*dA*dG*dG*e[5mC]*e[5mC]*eT*e[5mC]*eG) [compound 416997]
% inhibition [2]: 84%

416881 (antisense e[5mC]*eT*eA*dG*dG*dT*d[5mC]*d[5mC]*dA*d[5mC]*dA*dT*dA*dA*dA*dT*dG*eT*e[5mC]*eT) [compound 416881]
% inhibition [1]: 81%

417012 (antisense eG*eG*dA*d[5mC]*dG*dG*d[5mC]*dA*dT*dT*dG*dG*dT*dG*d[5mC]*eA*e[5mC]*eA*eG*eT) [compound 417012]
% inhibition [2]: 72%

416900 (antisense eA*eT*e[5mC]*d[5mC]*dG*dT*dG*d[5mC]*dA*dT*d[5mC]*dT*dT*dT*d[5mC]*dT*dT*eG*eG*e[5mC]) [compound 416900]
% inhibition [4]: 90%

416907 (antisense e[5mC]*eA*eA*d[5mC]*d[5mC]*dG*dG*dG*dA*dT*dG*dA*dT*dG*dA*dG*dT*eG*e[5mC]*eA) [compound 416907]
% inhibition [5]: 90%

416815 (antisense eT*eA*eG*eG*eT*d[5mC]*d[5mC]*dA*d[5mC]*dA*dT*dA*dA*dA*dT*eG*eT*e[5mC]*eT*eT) [compound 416815]
% inhibition [1]: 63%

416837 (antisense e[5mC]*eA*eA*e[5mC]*e[5mC]*dG*dG*dG*dA*dT*dG*dA*dT*dG*dA*eG*eT*eG*e[5mC]*eA) [compound 416837]
% inhibition [5]: 90%

416996 (antisense eT*eT*dT*d[5mC]*dT*dT*dT*dG*dA*dG*dA*dT*dT*d[5mC]*dT*eT*eT*eG*eG*eG) [compound 416996]
% inhibition [3]: 22%

416936 (antisense e[5mC]*eG*eG*dA*d[5mC]*dG*dG*d[5mC]*dA*dT*dT*dG*dG*dT*dG*d[5mC]*dA*e[5mC]*eA*eG) [compound 416936]
% inhibition [2]: 89%

417017 (antisense eG*e[5mC]*dA*dG*d[5mC]*dG*dG*dA*d[5mC]*dG*dG*d[5mC]*dA*dT*dT*eG*eG*eT*eG*e[5mC]) [compound 417017]
% inhibition [2]: 82%

416894 (antisense eA*eT*eG*d[5mC]*d[5mC]*d[5mC]*dT*dT*d[5mC]*dA*dT*dG*dT*d[5mC]*dT*dA*dG*eG*eT*e[5mC]) [compound 416894]
% inhibition [1]: 85%

416911 (antisense eA*eG*eA*dT*dT*d[5mC]*dT*dT*dT*dG*dG*dG*d[5mC]*d[5mC]*dA*dT*dT*e[5mC]*e[5mC]*eT) [compound 416911]
% inhibition [3]: 90%

416953 (antisense eT*e[5mC]*d[5mC]*dA*d[5mC]*dA*dT*dA*dA*dA*dT*dG*dT*d[5mC]*dT*eT*eT*eG*eT*eT) [compound 416953]
% inhibition [1]: 45%

416992 (antisense eT*eT*dT*dG*dA*dG*dA*dT*dT*d[5mC]*dT*dT*dT*dG*dG*eG*e[5mC]*e[5mC]*eA*eT) [compound 416992]
% inhibition [3]: 84%

416990 (antisense eT*eG*dA*dG*dA*dT*dT*d[5mC]*dT*dT*dT*dG*dG*dG*d[5mC]*e[5mC]*eA*eT*eT*e[5mC]) [compound 416990]
% inhibition [3]: 76%

416898 (antisense e[5mC]*e[5mC]*eG*dT*dG*d[5mC]*dA*dT*d[5mC]*dT*dT*dT*d[5mC]*dT*dT*dG*dG*e[5mC]*eA*eT) [compound 416898]
% inhibition [4]: 88%

416943 (antisense e[5mC]*eT*eG*dG*d[5mC]*dA*dG*d[5mC]*dG*dG*dA*d[5mC]*dG*dG*d[5mC]*dA*dT*eT*eG*eG) [compound 416943]
% inhibition [2]: 92%

416977 (antisense eA*eT*d[5mC]*d[5mC]*dG*dT*dG*d[5mC]*dA*dT*d[5mC]*dT*dT*dT*d[5mC]*eT*eT*eG*eG*e[5mC]) [compound 416977]
% inhibition [4]: 82%

416806 (antisense eA*eA*eA*eT*eG*dT*d[5mC]*dT*dT*dT*dG*dT*dT*dG*d[5mC]*eA*eA*eG*e[5mC]*eG) [compound 416806]
% inhibition [1]: 86%

416844 (antisense e[5mC]*eT*eT*eT*eG*dA*dG*dA*dT*dT*d[5mC]*dT*dT*dT*dG*eG*eG*e[5mC]*e[5mC]*eA) [compound 416844]
% inhibition [3]: 90%

416840 (antisense eA*eG*eA*eT*eT*d[5mC]*dT*dT*dT*dG*dG*dG*d[5mC]*d[5mC]*dA*eT*eT*e[5mC]*e[5mC]*eT) [compound 416840]
% inhibition [3]: 85%

416965 (antisense eT*eT*d[5mC]*dA*dT*dG*dT*d[5mC]*dT*dA*dG*dG*dT*d[5mC]*d[5mC]*eA*e[5mC]*eA*eT*eA) [compound 416965]
% inhibition [1]: 53%

417010 (antisense eA*e[5mC]*dG*dG*d[5mC]*dA*dT*dT*dG*dG*dT*dG*d[5mC]*dA*d[5mC]*eA*eG*eT*eT*eT) [compound 417010]
% inhibition [2]: 81%

416823 (antisense e[5mC]*e[5mC]*eT*eT*e[5mC]*dA*dT*dG*dT*d[5mC]*dT*dA*dG*dG*dT*e[5mC]*e[5mC]*eA*e[5mC]*eA) [compound 416823]
% inhibition [1]: 77%

416835 (antisense eA*e[5mC]*e[5mC]*eG*eG*dG*dA*dT*dG*dA*dT*dG*dA*dG*dT*eG*e[5mC]*eA*eG*eA) [compound 416835]
% inhibition [5]: 83%

416818 (antisense eT*eG*eT*e[5mC]*eT*dA*dG*dG*dT*d[5mC]*d[5mC]*dA*d[5mC]*dA*dT*eA*eA*eA*eT*eG) [compound 416818]
% inhibition [1]: 76%

416951 (antisense e[5mC]*eA*d[5mC]*dA*dT*dA*dA*dA*dT*dG*dT*d[5mC]*dT*dT*dT*eG*eT*eT*eG*e[5mC]) [compound 416951]
% inhibition [1]: 48%

416938 (antisense eA*eG*e[5mC]*dG*dG*dA*d[5mC]*dG*dG*d[5mC]*dA*dT*dT*dG*dG*dT*dG*e[5mC]*eA*e[5mC]) [compound 416938]
% inhibition [2]: 90%

416834 (antisense eG*eT*e[5mC]*eA*eT*d[5mC]*d[5mC]*dG*dT*dG*d[5mC]*dA*dT*d[5mC]*dT*eT*eT*e[5mC]*eT*eT) [compound 416834]
% inhibition [4]: 58%

417015 (antisense eA*eG*d[5mC]*dG*dG*dA*d[5mC]*dG*dG*d[5mC]*dA*dT*dT*dG*dG*eT*eG*e[5mC]*eA*e[5mC]) [compound 417015]
% inhibition [2]: 87%

416991 (antisense eT*eT*dG*dA*dG*dA*dT*dT*d[5mC]*dT*dT*dT*dG*dG*dG*e[5mC]*e[5mC]*eA*eT*eT) [compound 416991]
% inhibition [3]: 87%

417021 (antisense eA*e[5mC]*dT*dG*dG*d[5mC]*dA*dG*d[5mC]*dG*dG*dA*d[5mC]*dG*dG*e[5mC]*eA*eT*eT*eG) [compound 417021]
% inhibition [2]: 74%

416879 (antisense eA*eG*eG*dT*d[5mC]*d[5mC]*dA*d[5mC]*dA*dT*dA*dA*dA*dT*dG*dT*d[5mC]*eT*eT*eT) [compound 416879]
% inhibition [1]: 92%

416962 (antisense eA*eT*dG*dT*d[5mC]*dT*dA*dG*dG*dT*d[5mC]*d[5mC]*dA*d[5mC]*dA*eT*eA*eA*eA*eT) [compound 416962]
% inhibition [1]: 77%

416960 (antisense eG*eT*d[5mC]*dT*dA*dG*dG*dT*d[5mC]*d[5mC]*dA*d[5mC]*dA*dT*dA*eA*eA*eT*eG*eT) [compound 416960]
% inhibition [1]: 60%

416897 (antisense eT*eT*eT*dA*dT*dG*d[5mC]*d[5mC]*d[5mC]*dT*dT*d[5mC]*dA*dT*dG*dT*d[5mC]*eT*eA*eG) [compound 416897]
% inhibition [1]: 66%

416987 (antisense eG*eA*dT*dT*d[5mC]*dT*dT*dT*dG*dG*dG*d[5mC]*d[5mC]*dA*dT*eT*e[5mC]*e[5mC]*eT*eG) [compound 416987]
% inhibition [3]: 80%

416929 (antisense e[5mC]*eA*eT*dT*dG*dG*dT*dG*d[5mC]*dA*d[5mC]*dA*dG*dT*dT*dT*d[5mC]*eT*eG*eG) [compound 416929]
% inhibition [2]: 83%

416812 (antisense eT*e[5mC]*e[5mC]*eA*e[5mC]*dA*dT*dA*dA*dA*dT*dG*dT*d[5mC]*dT*eT*eT*eG*eT*eT) [compound 416812]
% inhibition [1]: 59%

416906 (antisense eA*eA*e[5mC]*d[5mC]*dG*dG*dG*dA*dT*dG*dA*dT*dG*dA*dG*dT*dG*e[5mC]*eA*eG) [compound 416906]
% inhibition [5]: 88%

416808 (antisense eA*eT*eA*eA*eA*dT*dG*dT*d[5mC]*dT*dT*dT*dG*dT*dT*eG*e[5mC]*eA*eA*eG) [compound 416808]
% inhibition [1]: 55%
